According to PubChem BioAssay AID256 (DTP/NCI, 2004):
Values joined by “and” are separate entries in the source; they are usually repeats but may differ in a detail not shown here. Equal entries are not always repeated. Inconclusive results and toxic doses are left out. Rule for the calls: active = survival T/C of 150% or more; inactive = T/C below 125% in these data.

Test system: CD2F1 mice, L1210 leukemia ip, survival T/C
Experiment: NCI In Vivo Anticancer Drug Screen. Data for tumor model L1210 Leukemia (intraperitoneal) in CD2F1 (CDF1) mice
Conditions: higher = longer survival
Summary of the method: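 Vehicle-treated tumor-bearing mice served as controls (C) for compound-treated mice (T). Reported figure is T divided by C.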

[1] = endpoint: mean survival time, dose: 100.0 mg/kg/injection, schedule: Q04DX003 (ip), vehicle: saline with Tween-80
[2] = endpoint: mean survival time, dose: 25.0 mg/kg/injection, schedule: Q01DX009 (ip), vehicle: saline with Tween-80
[3] = endpoint: mean survival time, dose: 100.0 mg/kg/injection, schedule: Q04DX003 (ip), vehicle: saline
[4] = endpoint: mean survival time, dose: 200.0 mg/kg/injection, schedule: Q04DX003 (ip), vehicle: saline
[5] = endpoint: mean survival time, dose: 400.0 mg/kg/injection, schedule: Q04DX003 (ip), vehicle: saline
[6] = endpoint: mean survival time, dose: 400.0 mg/kg/injection, schedule: Q04DX003 (ip), vehicle: saline with Tween-80
[7] = endpoint: mean survival time, dose: 100.0 mg/kg/injection, schedule: Q01DX001 (ip), vehicle: saline with Tween-80
[8] = endpoint: mean survival time, dose: 100.0 mg/kg/injection, schedule: Q01DX009 (ip), vehicle: saline with Tween-80
[9] = endpoint: mean survival time, dose: 200.0 mg/kg/injection, schedule: Q01DX009 (ip), vehicle: saline with Tween-80
[10] = endpoint: mean survival time, dose: 400.0 mg/kg/injection, schedule: Q01DX009 (ip), vehicle: saline with Tween-80

Measured: T/C

C[N+](C)(C)C1(Cc2ccc(Br)cc2)c2ccccc2-c2ccccc21
inactive: endpoint: mean survival time, dose: 6.25 mg/kg/injection, schedule: Q04DX003 (ip), vehicle: saline with Tween-80 88 % of control | endpoint: mean survival time, dose: 12.5 mg/kg/injection, schedule: Q04DX003 (ip), vehicle: saline with Tween-80 88 % of control | endpoint: mean survival time, dose: 25.0 mg/kg/injection, schedule: Q04DX003 (ip), vehicle: saline with Tween-80 87 % of control | [1] 92 % of control

CCCCCOc1ccccc1Cl
inactive: endpoint: mean survival time, dose: 100.0 mg/kg/injection, schedule: Q04DX002 (ip), vehicle: saline with Tween-80 101 % of control | endpoint: mean survival time, dose: 200.0 mg/kg/injection, schedule: Q04DX002 (ip), vehicle: saline with Tween-80 98 % of control

O=C1SC(c2ccccc2)=S=C1c1ccccc1
inactive: endpoint: median survival time, dose: 25.0 mg/kg/injection, schedule: Q01DX009 (ip), vehicle: saline with Tween-80 100 % of control | endpoint: median survival time, dose: 50.0 mg/kg/injection, schedule: Q01DX009 (ip), vehicle: saline with Tween-80 105 % of control | endpoint: median survival time, dose: 100.0 mg/kg/injection, schedule: Q01DX009 (ip), vehicle: saline with Tween-80 103 % of control | endpoint: median survival time, dose: 200.0 mg/kg/injection, schedule: Q01DX009 (ip), vehicle: saline with Tween-80 97 % of control | endpoint: median survival time, dose: 400.0 mg/kg/injection, schedule: Q01DX009 (ip), vehicle: saline with Tween-80 101 % of control

O=C(NNc1ccccc1)C(F)(F)F
inactive: [2] 107 % of control | endpoint: mean survival time, dose: 50.0 mg/kg/injection, schedule: Q01DX009 (ip), vehicle: saline with Tween-80 101 % of control | endpoint: mean survival time, dose: 100.0 mg/kg/injection, schedule: Q04DX003 (ip), vehicle: acetone 93 % of control

CC(=O)N1c2ccc(Br)cc2C(=O)C1C (centres undefined)
inactive: endpoint: mean survival time, dose: 100.0 mg/kg/injection, schedule: Q01DX001 (ip), vehicle: other 98 % of control | endpoint: mean survival time, dose: 200.0 mg/kg/injection, schedule: Q01DX001 (ip), vehicle: other 104 % of control | endpoint: mean survival time, dose: 400.0 mg/kg/injection, schedule: Q01DX001 (ip), vehicle: other 95 % of control

O=C(O)CSCSCC(=O)O
inactive: [3] 97 % of control | [4] 100 % of control | [5] 97 % of control

CC1(C)C=CC(C)(C)c2c(NS(=O)(=O)c3ccccc3)ccc(NS(=O)(=O)c3ccccc3)c21
inactive: [1] 98 % of control | [6] 96 % of control

CC(=O)Nc1c(C)cccc1[N+](=O)[O-]
inactive: endpoint: mean survival time, dose: 25.0 mg/kg/injection, schedule: Q01DX001 (ip), vehicle: saline with Tween-80 101 % of control | endpoint: mean survival time, dose: 50.0 mg/kg/injection, schedule: Q01DX001 (ip), vehicle: saline with Tween-80 97 % of control | [7] 97 % of control

O=C(OCC1OC(n2nc(N3CCOCC3)c(=O)[nH]c2=O)C(OC(=O)c2ccccc2)C1OC(=O)c1ccccc1)c1ccccc1 (centres undefined)
inactive: endpoint: mean survival time, dose: 12.5 mg/kg/injection, schedule: Q01DX005 (ip), vehicle: distilled water + Tween-80 98 % of control | endpoint: mean survival time, dose: 25.0 mg/kg/injection, schedule: Q01DX005 (ip), vehicle: distilled water + Tween-80 103 % of control | endpoint: mean survival time, dose: 50.0 mg/kg/injection, schedule: Q01DX005 (ip), vehicle: distilled water + Tween-80 92 % of control

CC(=O)NC(=S)NC(C)=O
inactive: endpoint: mean survival time, dose: 75.0 mg/kg/injection, schedule: Q04DX003 (ip), vehicle: saline 103 % of control | endpoint: mean survival time, dose: 150.0 mg/kg/injection, schedule: Q04DX003 (ip), vehicle: saline 103 % of control | endpoint: mean survival time, dose: 300.0 mg/kg/injection, schedule: Q04DX003 (ip), vehicle: saline 107 % of control

NC(CC(=O)CCl)C(=O)O (centres undefined)
inactive: endpoint: mean survival time, dose: 6.25 mg/kg/injection, schedule: Q04DX003 (ip), vehicle: saline 120 % of control | endpoint: mean survival time, dose: 37.5 mg/kg/injection, schedule: Q04DX003 (ip), vehicle: saline 109 % of control | endpoint: median survival time, dose: 10.0 mg/kg/injection, schedule: Q01DX001 (ip), vehicle: saline 121 % of control | endpoint: median survival time, dose: 20.0 mg/kg/injection, schedule: Q01DX001 (ip), vehicle: saline 121 % of control | endpoint: median survival time, dose: 30.0 mg/kg/injection, schedule: Q01DX009 (ip), vehicle: saline 122 % of control | endpoint: median survival time, dose: 40.0 mg/kg/injection, schedule: Q01DX001 (ip), vehicle: saline 122 % of control | endpoint: median survival time, dose: 60.0 mg/kg/injection, schedule: Q01DX009 (ip), vehicle: saline 35 % of control

O=C(CCl)Nc1ccccc1Cl
inactive: endpoint: mean survival time, dose: 100.0 mg/kg/injection, schedule: Q04DX003 (ip), vehicle: Klucel (hydroxypropylcellulose) (HPC) 97 % of control | endpoint: mean survival time, dose: 200.0 mg/kg/injection, schedule: Q04DX003 (ip), vehicle: Klucel (hydroxypropylcellulose) (HPC) 103 % of control

N#C/C(=C\c1cc(Br)cc(Br)c1O)c1ccc([N+](=O)[O-])cc1
inactive: [8] 103 % of control | [9] 96 % of control | [10] 94 % of control

CCCCCCCCC(O)CCC (centres undefined)
inactive: [3] 96 % of control | [4] 98 % of control | [5] 100 % of control

COC(=O)C(=O)O
inactive: [8] 93 % of control | [3] 95 % of control | [9] 95 % of control | [4] 104 % of control | [5] 93 % of control

CCOC(=O)/C(=C/c1ccc(OCc2ccccc2)cc1)P(=O)(OCC)OCC
inactive: [1] 98 % of control | endpoint: mean survival time, dose: 200.0 mg/kg/injection, schedule: Q04DX003 (ip), vehicle: saline with Tween-80 96 % of control | [6] 101 % of control

C=CCN(C)N=Nc1ccc(NC(N)=O)cc1
inactive: endpoint: mean survival time, dose: 2.34 mg/kg/injection, schedule: Q01DX009 (ip), vehicle: Klucel (hydroxypropylcellulose) (HPC) 100 % of control and 104 % of control | endpoint: mean survival time, dose: 4.68 mg/kg/injection, schedule: Q01DX009 (ip), vehicle: Klucel (hydroxypropylcellulose) (HPC) 104 % of control and 107 % of control | endpoint: mean survival time, dose: 9.37 mg/kg/injection, schedule: Q01DX009 (ip), vehicle: Klucel (hydroxypropylcellulose) (HPC) 110 % of control | endpoint: mean survival time, dose: 18.75 mg/kg/injection, schedule: Q01DX009 (ip), vehicle: Klucel (hydroxypropylcellulose) (HPC) 120 % of control | endpoint: mean survival time, dose: 75.0 mg/kg/injection, schedule: Q01DX009 (ip), vehicle: Klucel (hydroxypropylcellulose) (HPC) 98 % of control

CN(C)CCCN1c2ccccc2Sc2ccc(Cl)cc21
inactive: endpoint: mean survival time, dose: 12.5 mg/kg/injection, schedule: Q01DX001 (ip), vehicle: saline 107 % of control | endpoint: mean survival time, dose: 12.5 mg/kg/injection, schedule: Q01DX009 (ip), vehicle: saline with Tween-80 115 % of control | endpoint: mean survival time, dose: 25.0 mg/kg/injection, schedule: Q01DX001 (ip), vehicle: saline 117 % of control | [2] 86 % of control | endpoint: mean survival time, dose: 50.0 mg/kg/injection, schedule: Q01DX001 (ip), vehicle: saline 120 % of control | endpoint: mean survival time, dose: 100.0 mg/kg/injection, schedule: Q01DX001 (ip), vehicle: saline 111 % of control | [4] 97 % of control | endpoint: median survival time, dose: 15.0 mg/kg/injection, schedule: Q01DX001 (ip), vehicle: water 118 % of control and 107 % of control | endpoint: median survival time, dose: 25.0 mg/kg/injection, schedule: Q01DX001 (ip), vehicle: water 119 % of control and 107 % of control | endpoint: median survival time, dose: 30.0 mg/kg/injection, schedule: Q04DX003 (ip), vehicle: saline 80 % of control | endpoint: median survival time, dose: 50.0 mg/kg/injection, schedule: Q01DX001 (ip), vehicle: water 114 % of control and 120 % of control | endpoint: median survival time, dose: 60.0 mg/kg/injection, schedule: Q04DX003 (ip), vehicle: saline 80 % of control | endpoint: median survival time, dose: 75.0 mg/kg/injection, schedule: Q01DX001 (ip), vehicle: water 114 % of control | endpoint: median survival time, dose: 120.0 mg/kg/injection, schedule: Q04DX003 (ip), vehicle: saline 87 % of control

COc1ccc(OC)c2nc(-c3ccccc3)c(-c3ccccc3)nc12
inactive: [8] 98 % of control | [9] 97 % of control | [10] 104 % of control

CCOc1cccc(Cc2cn(Cc3cccc(NC(=O)Nc4cccc(S(=O)(=O)F)c4)c3)c(=O)[nH]c2=O)c1
inactive: [7] 95 % of control | endpoint: mean survival time, dose: 200.0 mg/kg/injection, schedule: Q01DX001 (ip), vehicle: saline with Tween-80 95 % of control | endpoint: mean survival time, dose: 400.0 mg/kg/injection, schedule: Q01DX001 (ip), vehicle: saline with Tween-80 94 % of control
